Experimental data as given in patent US8551718B2 (Suven Life Science Limited, priority 2009, dated 2013).
Read-outs that look alike come from different tables or passages of the source.

Tests used:
histamine H1 receptor [1] = biological target: T1, histamine H1 receptor (Homo sapiens, UniProt P35367); settings: for Blockade of histamine induced luciferase activity (in words): CHO-H1 cells, compound 10 μM with 10 μM histamine
[2] = biological target: T2, adrenergic alpha1b receptor (Homo sapiens, UniProt P35368); experiment: Radioligand (SPA) competition binding assay, [3H]Prazosin; settings: for Binding to alpha1b receptor (in words): radioligand binding assay using SPA beads
T2 sequence (P35368 1-520): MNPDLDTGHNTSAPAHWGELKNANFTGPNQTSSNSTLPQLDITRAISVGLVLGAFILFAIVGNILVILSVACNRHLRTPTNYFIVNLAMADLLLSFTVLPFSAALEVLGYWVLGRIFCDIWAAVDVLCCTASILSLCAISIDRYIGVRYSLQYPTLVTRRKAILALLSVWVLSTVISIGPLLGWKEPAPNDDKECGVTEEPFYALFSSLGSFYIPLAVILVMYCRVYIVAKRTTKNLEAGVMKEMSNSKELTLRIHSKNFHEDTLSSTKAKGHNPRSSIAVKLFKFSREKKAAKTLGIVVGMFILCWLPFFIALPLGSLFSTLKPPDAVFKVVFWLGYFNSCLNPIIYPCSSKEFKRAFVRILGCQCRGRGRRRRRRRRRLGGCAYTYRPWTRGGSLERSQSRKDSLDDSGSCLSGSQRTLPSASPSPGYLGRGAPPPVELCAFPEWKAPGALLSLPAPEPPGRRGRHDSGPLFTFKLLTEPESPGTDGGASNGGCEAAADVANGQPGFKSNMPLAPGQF

5-HT2A receptor [3] = biological target: T3, 5-HT2A receptor (Homo sapiens, UniProt P28223); experiment: Radioligand (SPA) competition binding assay, [3H]Ketanserin; settings: for Binding to 5-HT2A receptor (in words): radioligand binding assay using SPA beads
T3 sequence (P28223 whole entry): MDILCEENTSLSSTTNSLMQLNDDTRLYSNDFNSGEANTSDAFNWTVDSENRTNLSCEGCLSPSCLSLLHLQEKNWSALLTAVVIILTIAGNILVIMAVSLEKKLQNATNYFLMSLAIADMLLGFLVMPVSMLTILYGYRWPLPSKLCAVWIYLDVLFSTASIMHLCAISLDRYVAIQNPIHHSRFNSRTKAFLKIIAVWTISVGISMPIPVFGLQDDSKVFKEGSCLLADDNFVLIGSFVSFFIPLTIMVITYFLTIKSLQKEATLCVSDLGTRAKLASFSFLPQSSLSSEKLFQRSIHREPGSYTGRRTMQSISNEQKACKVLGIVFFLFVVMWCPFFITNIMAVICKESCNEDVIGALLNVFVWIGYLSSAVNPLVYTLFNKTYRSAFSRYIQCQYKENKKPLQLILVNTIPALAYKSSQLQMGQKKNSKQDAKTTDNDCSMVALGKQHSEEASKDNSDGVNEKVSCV

[4] = biological target: T2, adrenergic alpha1b receptor; experiment: CRE-Luc reporter gene functional assay in CHO-α1b cells; assay type: cell-based; parameters: expressed in transfected cells; host or cells: CHO cells (CHO-α1b), co-transfected with CRE-Luc reporter; settings: for Blockade of epinephrine induced luciferase activity (in words): compound 10 μM with 10 μM epinephrine; for EC50: agonist mode, luciferase activity
5-HT2A receptor [5] = biological target: T3, 5-HT2A receptor; experiment: CRE-Luc reporter gene functional assay in CHO-5HT2A cells; assay type: cell-based; parameters: expressed in transfected cells; host or cells: CHO cells (CHO-5HT2A), co-transfected with CRE-Luc reporter; settings: for Antagonism of serotonin induced luciferase activity (in words): compound 10 μM with 10 μM serotonin; for Dose response induction of luciferase activity (in words): up to the highest dose tested
histamine H1 receptor [6] = biological target: T1, histamine H1 receptor; settings: radioligand binding assay using SPA beads
histamine H1 receptor [7] = biological target: T1, histamine H1 receptor; experiment: biochemical
histamine H1 receptor [8] = biological target: T1, histamine H1 receptor; experiment: cell-based
[9] = biological target: T4, human adrenergic alpha1b receptor (Mesocricetus auratus, UniProt P18841); settings: CHO cells expressing human adrenergic alpha1b receptor, literature; cited from earlier work
T4 sequence (P18841 1-515): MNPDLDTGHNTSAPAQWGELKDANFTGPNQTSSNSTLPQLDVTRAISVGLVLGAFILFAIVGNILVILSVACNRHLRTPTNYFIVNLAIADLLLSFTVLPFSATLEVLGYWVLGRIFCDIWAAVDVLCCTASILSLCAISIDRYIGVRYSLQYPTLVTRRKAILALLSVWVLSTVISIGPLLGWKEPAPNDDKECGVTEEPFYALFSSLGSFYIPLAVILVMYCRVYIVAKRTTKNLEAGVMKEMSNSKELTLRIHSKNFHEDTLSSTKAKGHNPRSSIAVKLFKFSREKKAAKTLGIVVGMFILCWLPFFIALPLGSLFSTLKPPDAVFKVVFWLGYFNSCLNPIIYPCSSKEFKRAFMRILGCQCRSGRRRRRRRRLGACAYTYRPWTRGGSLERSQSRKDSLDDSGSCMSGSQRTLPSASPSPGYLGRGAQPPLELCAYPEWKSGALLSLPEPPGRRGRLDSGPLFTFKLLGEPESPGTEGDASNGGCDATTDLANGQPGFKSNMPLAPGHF

T1 sequence (P35367 whole entry): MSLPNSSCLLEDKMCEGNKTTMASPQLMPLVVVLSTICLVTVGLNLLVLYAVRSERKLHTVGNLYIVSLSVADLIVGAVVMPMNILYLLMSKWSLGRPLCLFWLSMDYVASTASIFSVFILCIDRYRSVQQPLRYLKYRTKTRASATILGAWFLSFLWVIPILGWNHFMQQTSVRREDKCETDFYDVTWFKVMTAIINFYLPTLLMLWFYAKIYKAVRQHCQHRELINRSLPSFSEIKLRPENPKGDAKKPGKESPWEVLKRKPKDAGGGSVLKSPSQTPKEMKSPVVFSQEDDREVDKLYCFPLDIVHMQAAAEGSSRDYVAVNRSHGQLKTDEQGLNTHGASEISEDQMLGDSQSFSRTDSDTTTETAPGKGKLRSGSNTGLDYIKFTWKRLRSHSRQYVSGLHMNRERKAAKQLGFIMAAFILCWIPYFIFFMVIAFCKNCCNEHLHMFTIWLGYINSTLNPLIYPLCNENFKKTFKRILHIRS

| Compound | Ki [2] [µM] | Binding to 5-HT2A receptor (in words) (5-HT2A receptor [3]) | IC50 [4] [µM] | Kb [4] [µM] | Blockade of epinephrine induced luciferase activity (in words) ([4]; CHO-α1b cells) | Antagonism of serotonin induced luciferase activity (in words) (5-HT2A receptor [5]) | Binding to H1 receptor (in words) (histamine H1 receptor [6]) | Binding to alpha1b receptor (in words) [2] | EC50 ([4]; CHO-α1b cells, 0.1 to 10000 nM) [µM] | Dose response induction of luciferase activity (in words) (5-HT2A receptor [5]) | also measured |
| --- | --- | --- | --- | --- | --- | --- | --- | --- | --- | --- | --- |
| O=C(O)COCCN1CCN(C(c2ccccc2)c2ccc(Cl)cc2)CC1 (centres unmarked) [Cetirizine] | > 10 | no affinity | > 10 | > 10 | did not show any effect | did not show any impact | no affinity |  |  |  | Blockade of histamine induced luciferase activity (in words) (histamine H1 receptor [1]): inverse agonist property; Blockade of histamine induced luciferase activity (in words) (histamine H1 receptor [1]; listed as cetirizine): completely blocked; Antagonism of epinephrine induced luciferase activity, dose response study (in words) ([4]; CHO-α1b cells): did not show any antagonism; Antagonism of serotonin induced luciferase activity, dose response study (in words) (5-HT2A receptor [5]; compound 0.1 to 10,000 nM with 10 μM serotonin): none or partial antagonism |
| CN(C)CCCN1c2ccccc2Sc2ccc(Cl)cc21 [Chlorpromazine] |  |  |  | 0.000501 | completely blocked |  |  |  |  |  |  |
| NCCc1c[nH]cn1 [Histamine] | > 10 | did not show any binding |  |  |  |  |  | did not show any binding | > 10 | did not show the induction of luciferase activity | Dose response induction of luciferase activity (in words) (histamine H1 receptor [1]): dose proportionate increase in luciferase activity; Ki (5-HT2A receptor [3]): > 10 µM; Dose response induction of luciferase activity (in words) ([4]; CHO-α1b cells, 0.1 to 10000 nM): did not respond; EC50 (5-HT2A receptor [5]; agonist mode, luciferase activity, 0.1 nM to 10,000 nM): > 10 µM |
| O=C(c1ccc(F)cc1)C1CCN(CCn2c(=O)[nH]c3ccccc3c2=O)CC1 [Ketanserin] | […] |  | […] | […] | […] | fully antagonized |  |  |  |  |  |
| NCCc1c[nH]c2ccc(O)cc12 [Serotonin] | > 10 |  |  |  |  |  | did not show any binding | did not show any binding | > 10 | specific dose response effect | Ki (histamine H1 receptor [7]): > 10 µM; EC50 (histamine H1 receptor [8]): > 10 µM |
| NC[C@H](O)c1ccc(O)c(O)c1 [norepinephrine] |  |  |  |  |  |  |  |  |  |  | pEC50 for cAMP accumulation [9]: 6.6 |
